Measurements taken from US20230339890A1, “AMINO ALCOHOL COMPOUNDS AND USES THEREOF” (Kineta, Inc., priority 2020, published 2023).

molecular target: Recombinant human CYP51A1 (lanosterol-14a-demethylase) (Homo sapiens (Human), UniProt Q16850); assay: Inhibition of CYP51A1, fluorescent substrate BOMCC; type: biochemical; details: recombinant human CYP51A1 coexpressed with CYP reductase in bacterial membranes, 8-point concentration-response, read-out: CYP51 IC50
Description: Method: Recombinant human CYP51A1 (lanosterol-14a-demethylase) enzyme was coexpressed with CYP reductase in bacterial membranes and the fluorescent substrate BOMCC (a nonnatural substrate that causes increases in fluorescence upon CYP51A1-dependent demethylation) was used to obtain 8-point dose concentration-response curves for each compound.

Sequence of Recombinant human CYP51A1 (lanosterol-14a-demethylase) (Q16850 whole entry): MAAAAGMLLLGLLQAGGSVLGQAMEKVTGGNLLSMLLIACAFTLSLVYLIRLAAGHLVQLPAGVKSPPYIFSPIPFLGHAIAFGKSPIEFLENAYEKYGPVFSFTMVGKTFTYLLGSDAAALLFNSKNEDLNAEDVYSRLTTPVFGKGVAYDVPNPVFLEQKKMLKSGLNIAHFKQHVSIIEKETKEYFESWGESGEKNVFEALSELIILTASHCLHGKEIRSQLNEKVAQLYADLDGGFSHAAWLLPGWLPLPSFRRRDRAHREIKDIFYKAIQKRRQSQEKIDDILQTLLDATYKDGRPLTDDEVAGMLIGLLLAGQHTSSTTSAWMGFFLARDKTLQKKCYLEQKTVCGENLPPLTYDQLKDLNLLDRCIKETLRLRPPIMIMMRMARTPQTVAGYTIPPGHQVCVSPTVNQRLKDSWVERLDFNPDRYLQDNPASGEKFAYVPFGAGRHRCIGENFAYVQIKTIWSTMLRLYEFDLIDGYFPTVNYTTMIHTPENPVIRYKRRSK

Row | SMILES | IC50
1 | COC(=O)N(CCc1ccc(Cl)c(Cl)c1)CC(O)c1cccnc1 (stereo not shown) [compound 83, Methyl N-[2-(3,4-dichlorophenyl)ethyl] -N-[2-hydroxy-2-(3-pyridyl)ethyl]carbam ate] | 0.1 to 1 µM
2 | O=C(Cc1ccc(C(F)(F)F)nc1)N(CC(O)c1cnccn1)C1CCC1 (stereo not shown) [compound 85] | 0.1 to 1 µM
3 | O=C(Cc1ccc(Cl)c(Cl)c1)N(C[C@@H](O)c1cccnc1)C1CC1 [compound 86, N-cyclopropyl-2-(3,4-dichlorophenyl)-N-[(2S)-2-hydroxy-2-(3-pyridyl)ethyl]acetamide] | 0.1 to 1 µM
4 | O=C(Cc1ccc(C(F)(F)F)nc1)N(CC1CCC1)CC(O)c1cccnn1 (stereo not shown) [compound 87] | 0.1 to 1 µM
5 | Cc1ccncc1C(O)CN(CC1COC1)C(=O)Cc1ccc(C(F)(F)F)nc1 (stereo not shown) [compound 89, N-[2-hydroxy-2-(4-methyl-3-pyridyl)ethyl] -N-(oxetan-3-ylmethyl)-2-[6-(trifluoromethyl)-3-pyridyl]acetamide] | > 1 µM
6 | CC(C)c1ccncc1C(O)CN(CC1COC1)C(=O)Cc1ccc(C(F)(F)F)nc1 (stereo not shown) [compound 90, N-[2-hydroxy-2-(4-isopropyl-3-pyridyl)ethyl]-N-(oxetan-3-ylmethyl)-2-[6-(trifluoromethyl)-3-pyridyl]acetamide] | ≤ 0.1 µM
7 | CCC(=O)N(C[C@@H](O)c1cccnc1)C1Cc2cnc(C(F)(F)F)cc2C1 (stereo partly drawn) [compound 93, N-[(2S)-2-hydroxy-2-(3-pyridyl)ethyl]-N-[3-(trifluoromethyl)-6,7-dihydro-5H-cyclopenta[c]pyridin-6-yl]propanamide] | > 1 µM
8 | CC(C)N(C[C@@H](O)c1cccnc1)C(=O)Cc1cnc(C(F)(F)F)nc1 [compound 94, N-[(2S)-2-hydroxy-2-(3-pyridyl)ethyl]-N-isopropyl-2-[2-(trifluoromethyl)pyrimidin-5-yl]acetamide] | 0.1 to 1 µM
9 | CCCN(CC(O)c1cccnc1)C(=O)Cc1ccc(F)c(F)c1 (stereo not shown) [compound 95, 2-(3,4-difluorophenyl)-N-(2-hydroxy-2-(pyridin-3-yl)ethyl)-N-propylacetamide] | 0.1 to 1 µM
10 | CCCN(CC(O)c1cnccn1)C(=O)Cc1ccc(Cl)c(Cl)c1 (stereo not shown) [compound 96] | 0.1 to 1 µM
11 | CCCN(CC(O)c1cccnn1)C(=O)Cc1ccc(Cl)c(Cl)c1 (stereo not shown) [compound 97] | ≤ 0.1 µM
12 | CCCN(C[C@@H](O)c1cccnc1)C(=O)C1CCc2cc(Cl)c(Cl)cc2C1 (stereo partly drawn) [compound 98, 6,7-dichloro-N-[(2S)-2-hydroxy-2-(3-pyridyl)ethyl]-N-propyl-tetralin-2-carboxamide] | ≤ 0.1 µM
13 | CCCN(C[C@@H](O)c1cccnc1)C(=O)Cc1ccc(C)c(C)c1 [compound 99, 2-(3,4-dimethylphenyl)-N-[(2S)-2-hydroxy-2-(3-pyridyl)ethyl]-N-propyl-acetamide] | 0.1 to 1 µM
14 | CCCN(C[C@@H](O)c1cccnc1)C(=O)Cc1ccc(C#N)c(Cl)c1 [compound 100, 2-(3-chloro-4-cyano-phenyl)-N-[(2S)-2-hydroxy-2-(3-pyridyl)ethyl]-N-propyl-acetamide] | ≤ 0.1 µM
15 | CCCN(C[C@@H](O)c1cccnc1)C(=O)c1nc2cc(Cl)c(Cl)cc2[nH]1 [compound 101, 5,6-dichloro-N-[(2S)-2-hydroxy-2-(3-pyridyl)ethyl]-N-propyl-1 H-benzimidazole-2-carboxamide] | > 1 µM
16 | CCCN(CC(O)c1ccc(OC)nc1)C(=O)Cc1ccc(Cl)c(Cl)c1 (stereo not shown) [compound 102, 2-(3,4-dichlorophenyl)-N-[2-hydroxy-2-(6-methoxy-3-pyridyl)ethyl]-N-propyl-acetamide] | > 1 µM
17 | CCCN(CC(O)c1cncc(Br)c1)C(=O)Cc1ccc(Cl)c(Cl)c1 (stereo not shown) [compound 103, N-[2-(5-bromo-3-pyridyl)-2-hydroxyethyl]-2-(3,4-dichlorophenyl)-N-propyl-acetamide] | > 1 µM
18 | CCCN(C[C@@H](O)c1cccnc1)C(=O)Cc1cncnc1 [compound 104, N-[(2S)-2-hydroxy-2-(3-pyridyl)ethyl]-N-propyl-2-pyrimidin-5-yl-acetamide] | > 1 µM
19 | CCCN(C[C@@H](O)c1cccnc1)C(=O)Cc1ccc(C(F)(F)F)c(F)c1 [compound 105, 2-[3-fluoro-4-(trifluoromethyl)phenyl]-N-[(2S)-2-hydroxy-2-(3-pyridyl)ethyl]-N-propyl-acetamide] | ≤ 0.1 µM
20 | CCCN(C[C@@H](O)c1cccnc1)C(=O)Cc1ccc(C(F)(F)F)cn1 [compound 106, N-[(2S)-2-hydroxy-2-(3-pyridyl)ethyl]-N-propyl-2-[5-(trifluoromethyl)-2-pyridyl]acetamide] | 0.1 to 1 µM
21 | CCCN(C[C@@H](O)c1cccnc1)C(=O)N1Cc2cc(Cl)c(Cl)cc2C1 [compound 107, 5,6-dichloro-N-[(2S)-2-hydroxy-2-(3-pyridyl)ethyl]-N-propyl-isoindoline-2-carboxamide] | ≤ 0.1 µM
22 | CCCN(C[C@@H](O)c1cccnc1)C(=O)Cc1ccc(F)cn1 [compound 108, 2-(5-fluoro-2-pyridyl)-N-[(2S)-2-hydroxy-2-(3-pyridyl)ethyl]-N-propyl-acetamide] | > 1 µM
23 | CCCN(CC(O)c1cnccc1OC)C(=O)Cc1ccc(Cl)c(Cl)c1 (stereo not shown) [compound 109, 2-(3,4-dichlorophenyl)-N-[2-hydroxy-2-(4-methoxy-3-pyridyl)ethyl]-N-propyl-acetamide] | ≤ 0.1 µM

Continued, values first:

Row | IC50 | SMILES
24 | 0.1 to 1 µM | CCCN(C[C@@H](O)c1cccnc1)C(=O)C1Cc2cc(F)c(F)cc2C1 [compound 110, 5,6-difluoro-N-[(2S)-2-hydroxy-2-(3-pyridyl)ethyl]-N-propyl-indane-2-carboxamide]
25 | > 1 µM | CCCN(CC(O)c1cncc(C#N)c1)C(=O)Cc1ccc(Cl)c(Cl)c1 (stereo not shown) [compound 111, N-[2-(5-cyano-3-pyridyl)-2-hydroxyethyl]-2-(3,4-dichlorophenyl)-N-propyl-acetamide]
26 | 0.1 to 1 µM | CCCN(CC(O)c1cncc(F)c1)C(=O)Cc1ccc(C(F)(F)F)nc1 (stereo not shown) [compound 112, N-[2-(5-fluoro-3-pyridyl)-2-hydroxyethyl]-N-propyl-2-[6-(trifluoromethyl)-3-pyridyl]acetamide]
27 | > 1 µM | CCCN(CC(O)c1cnccn1)C(=O)Cc1ccc(C(F)(F)F)nc1 (stereo not shown) [compound 113]
28 | > 1 µM | CCCN(CC(O)c1ccc(C(F)(F)F)nc1)C(=O)Cc1ccc(Cl)c(Cl)c1 (stereo not shown) [compound 114, 2-(3,4-dichlorophenyl)-N-[2-hydroxy-2-[6-(trifluoromethyl)-3-pyridyl]ethyl]-N-propyl-acetamide]
29 | > 1 µM | CCCN(CC(O)c1ccc(=O)[nH]c1)C(=O)Cc1ccc(Cl)c(Cl)c1 (stereo not shown) [compound 115, 2-(3,4-dichlorophenyl)-N-[2-hydroxy-2-(6-oxo-1 H-pyridin-3-yl)ethyl]-N-propyl-acetamide]
30 | 0.1 to 1 µM | CCCN(CC(O)c1cccnn1)C(=O)Cc1ccc(OC(F)(F)F)c(Cl)c1 (stereo not shown) [compound 116]
31 | > 1 µM | CCCN(CC(O)c1cccnc1)C(=O)C(C)c1ccc(Cl)c(Cl)c1 (stereo not shown) [compound 117, 2-(3,4-dichlorophenyl)-N-[2-hydroxy-2-(3-pyridyl)ethyl]-N-propyl-propanamide]
32 | > 1 µM | CCCN(C[C@@H](O)c1cccnc1)C(=O)Cc1cccc2ncsc12 [compound 118, 2-(1,3-benzothiazol-7-yl)-N-[(2S)-2-hydroxy-2-(3-pyridyl)ethyl]-N-propyl-acetamide]
33 | ≤ 0.1 µM | CCCN(C[C@@H](O)c1cccnc1)C(=O)Cc1ccc(C#N)c(F)c1 [compound 119, 2-(4-cyano-3-fluoro-phenyl)-N-[(2S)-2-hydroxy-2-(3-pyridyl)ethyl]-N-propyl-acetamide]
34 | ≤ 0.1 µM | CCCN(C[C@@H](O)c1cccnc1)C(=O)C1Cc2ccc(Cl)c(Cl)c2C1 (stereo partly drawn) [compound 120, 4,5-dichloro-N-[(2S)-2-hydroxy-2-(3-pyridyl)ethyl]-N-propyl-indane-2-carboxamide]
35 | > 1 µM | CCCN(CC(O)c1ccc(=O)n(C)c1)C(=O)Cc1ccc(Cl)c(Cl)c1 (stereo not shown) [compound 121, 2-(3,4-dichlorophenyl)-N-[2-hydroxy-2-(1-methyl-6-oxo-3-pyridyl)ethyl]-N-propyl-acetamide]
36 | > 1 µM | CCCN(C(=O)Cc1ccc(Cl)c(Cl)c1)C(CO)c1ccc(=O)n(C)c1 (stereo not shown) [compound 122, 2-(3,4-dichlorophenyl)-N-[2-hydroxy-1-(1-methyl-6-oxo-3-pyridyl)ethyl]-N-propyl-acetamide]
37 | > 1 µM | CCCN(CC(O)c1cccnc1)C(=O)Cc1cccnc1 (stereo not shown) [compound 123, N-[2-hydroxy-2-(3-pyridyl)ethyl]-N-propyl-2-(3-pyridyl)acetamide]
38 | ≤ 0.1 µM | CCCN(C[C@@H](O)c1cccnc1)C(=O)Cc1cnc(C(F)(F)F)nc1 [compound 124, N-[(2S)-2-hydroxy-2-(3-pyridyl)ethyl]-N-propyl-2-[2-(trifluoromethyl)pyrimidin-5-yl]acetamide]
39 | 0.1 to 1 µM | CCCN(CC(O)c1cncc(F)c1)C(=O)Cc1ccc(Cl)c(Cl)c1 (stereo not shown) [compound 126, 2-(3,4-dichlorophenyl)-N-[2-(5-fluoro-3-pyridyl)-2-hydroxyethyl]-N-propyl-acetamide]
40 | > 1 µM | CCCN(C[C@@H](O)c1cccnc1)C(=O)Cc1ccnc(C(F)(F)F)c1 [compound 127, N-[(2S)-2-hydroxy-2-(3-pyridyl)ethyl]-N-propyl-2-[2-(trifluoromethyl)-4-pyridyl]acetamide]
41 | ≤ 0.1 µM | CCCN(C[C@@H](O)c1cccnc1)C(=O)C1Cc2cnc(C(F)(F)F)cc2C1 (stereo partly drawn) [compound 128, N-[(2S)-2-hydroxy-2-(3-pyridyl)ethyl]-N-propyl-3-(trifluoromethyl)-6,7-dihydro-5H-cyclopenta[c]pyridine-6-carboxamide]
42 | 0.1 to 1 µM | CCCN(CC(O)c1cnccn1)C(=O)C1Cc2cc(Cl)c(Cl)cc2C1 (stereo not shown) [compound 129]
43 | ≤ 0.1 µM | CCCN(C[C@@H](O)c1cccnc1)C(=O)Cc1cnc(C(C)(C)C)nc1 [compound 130, 2-(2-tert-butylpyrimidin-5-yl)-N-[(2S)-2-hydroxy-2-(3-pyridyl)ethyl]-N-propyl-acetamide]
